Values after ≈ are worked out from the molar mass of the structure shown. Values joined by “and” are separate entries in the source; they are usually repeats but may differ in a detail not shown here. Identical values can stand only once.
Columns and labels:
[1] = target: S. aureus topoisomerase IV (Staphylococcus aureus, UniProt P0C1S7+P0C1U9); assay: biochemical; conditions: source data Fig 2C; for Topo IV decatenation inhibition response: S. aureus topo IV
Description: (§1) Assays with P. aeruginosa topoisomerase IV (3 nM) were conducted in a similar buffer but with 50 mM HEPES-KOH (pH 7.9), 100 mM potassium glutamate, 6 mM magnesium acetate, 6 mM DTT, 1 mM ATP, 2 mM spermidine, and 50 μg/mL albumin. For S. aureus topoisomerase IV assay, the reactions contained 4 nM enzyme in an assay buffer composed of 50 mM Tris-HCl (pH 7.5), 5 mM MgCl₂, 5 mM DTT, 1.5 mM ATP, 350 mM potassium glutamate, and 0.05 mg/mL albumin. The procedures followed were consistent with those used in the supercoiling assays. Decatenated minicircles were resolved on 0.8% agarose gels, while the kDNA substrate remained in the wells. Gels were stained with 0.8 μg/mL ethidium bromide solution for 10 min, followed by destaining. DNA bands were visualized using a gel documentation system, and compound inhibition analysis was carried out using the same procedures described for the supercoiling assays.

K. pneumoniae = conditions: ref 6 (Hameed P et al., 2024); cited from earlier work
A. baumannii ATCC 19606 = assay: In vitro spontaneous resistance frequency; format: cell-based; conditions: colonies selected at 4× MIC of the same compound
Description: (§2) Spontaneous resistance frequencies to BWC0977 were evaluated in E. coli ATCC 25922, P. aeruginosa ATCC 27853, and A. baumannii ATCC 19606. Mid-logarithmic phase cultures (~10^9 CFU/mL) were plated onto Luria-Bertani agar containing BWC0977 at 4×, 8×, and 16× the respective MICs. Plates were incubated at 37 °C for 24–36 h, and resistance frequencies were estimated by counting colony-forming units (CFUs) on the drug-containing plates. MICs of the isolated colonies were determined, and the gyrA, gyrB, parC, and parE genes were sequenced to assess for target-site mutations.

E. coli ATCC 25922 = assay: In vitro spontaneous resistance frequency; format: cell-based; conditions: 4× MIC
Description: as §2

E. coli topoisomerase IV = target: T1, E. coli topoisomerase IV (Escherichia coli, UniProt P0AFI2+P20083); assay: biochemical; format: biochemical; conditions: E. coli topo IV, source data Fig 2A
T1 construct: purchased Inspiralis

[2] = target: P. aeruginosa topoisomerase IV (Pseudomonas aeruginosa, UniProt Q9HUJ8+Q9HUK1); assay: Topoisomerase IV decatenation assay, P. aeruginosa; format: biochemical; conditions: for Topo IV decatenation inhibition response: P. aeruginosa topo IV
Description: as §1, with “Topoisomerase IV decatenation reactions were performed using 2.5 nM E. coli enzyme and 60 ng kinetoplast DNA (kDNA) in an assay buffer containing 50 mM HEPES-KOH (pH 7.6), 100 mM potassium glutamate, 10 mM magnesium acetate, 10 mM DTT, 1 mM ATP, and 50 μg/mL albumin. Assays” for “Assays”

P. aeruginosa = tested on: P. aeruginosa; set-up: method as in ref 6 (Hameed P et al., 2024); conditions: ref 6 (Hameed P et al., 2024); cited from earlier work
A. baumannii = tested on: A. baumannii; set-up: method as in ref 6 (Hameed P et al., 2024); conditions: ref 6 (Hameed P et al., 2024); cited from earlier work
[3] = target: K. pneumoniae fusion-truncated topoisomerase IV (ParE30-(Glu-Ser)-ParC55) (Klebsiella pneumoniae); assay: crystal structure; ternary complex of ParEC core dimer, 26-bp DNA duplex and BWC0977 (23 uM ParEC core: 28 uM dsDNA: 200 uM BWC0977); sitting-drop vapor diffusion at 20 °C, 17% PEG 3350, 0.1 M sodium formate, 100 mM Bis-Tris propane pH 8.5; 3.05 Å
[4] = target: ParEC core (ParE-ES-ParC fusion, topoisomerase IV) (Klebsiella pneumoniae, UniProt A6TE19 400-631+=ES+A6TE12:1-488, internal_change); assay: X-ray crystallography (3.05 Å); BWC0977 (one molecule intercalated between DNA bases +2 and +3); Crystallization conditions not in material; protein in 20 mM Tris-HCl pH 7.5, 100 mM NaCl, 2 mM TCEP (6 mg/mL); DNA in nuclease-free water; conditions: protein: recombinant; tags: C-terminal His6; chain copies: 2; blunt; self-complementary, 2 copies of the strand

T1 sequence (P20083 whole entry): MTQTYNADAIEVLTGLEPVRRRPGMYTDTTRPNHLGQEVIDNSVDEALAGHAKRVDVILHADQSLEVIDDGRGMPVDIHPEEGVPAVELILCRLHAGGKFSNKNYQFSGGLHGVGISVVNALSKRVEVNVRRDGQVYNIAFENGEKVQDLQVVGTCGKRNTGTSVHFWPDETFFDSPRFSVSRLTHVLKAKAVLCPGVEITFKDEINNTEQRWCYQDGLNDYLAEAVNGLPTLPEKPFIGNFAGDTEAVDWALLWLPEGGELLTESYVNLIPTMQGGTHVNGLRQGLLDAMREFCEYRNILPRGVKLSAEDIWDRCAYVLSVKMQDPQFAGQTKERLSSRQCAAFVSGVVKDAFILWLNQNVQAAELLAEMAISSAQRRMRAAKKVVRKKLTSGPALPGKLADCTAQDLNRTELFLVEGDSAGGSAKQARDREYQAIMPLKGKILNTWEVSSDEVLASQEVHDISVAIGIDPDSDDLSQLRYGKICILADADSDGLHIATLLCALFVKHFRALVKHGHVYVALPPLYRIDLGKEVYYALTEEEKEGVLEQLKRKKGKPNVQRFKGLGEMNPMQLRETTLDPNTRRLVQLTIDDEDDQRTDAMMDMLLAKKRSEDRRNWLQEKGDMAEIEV
T1 sequence (P0AFI2 whole entry): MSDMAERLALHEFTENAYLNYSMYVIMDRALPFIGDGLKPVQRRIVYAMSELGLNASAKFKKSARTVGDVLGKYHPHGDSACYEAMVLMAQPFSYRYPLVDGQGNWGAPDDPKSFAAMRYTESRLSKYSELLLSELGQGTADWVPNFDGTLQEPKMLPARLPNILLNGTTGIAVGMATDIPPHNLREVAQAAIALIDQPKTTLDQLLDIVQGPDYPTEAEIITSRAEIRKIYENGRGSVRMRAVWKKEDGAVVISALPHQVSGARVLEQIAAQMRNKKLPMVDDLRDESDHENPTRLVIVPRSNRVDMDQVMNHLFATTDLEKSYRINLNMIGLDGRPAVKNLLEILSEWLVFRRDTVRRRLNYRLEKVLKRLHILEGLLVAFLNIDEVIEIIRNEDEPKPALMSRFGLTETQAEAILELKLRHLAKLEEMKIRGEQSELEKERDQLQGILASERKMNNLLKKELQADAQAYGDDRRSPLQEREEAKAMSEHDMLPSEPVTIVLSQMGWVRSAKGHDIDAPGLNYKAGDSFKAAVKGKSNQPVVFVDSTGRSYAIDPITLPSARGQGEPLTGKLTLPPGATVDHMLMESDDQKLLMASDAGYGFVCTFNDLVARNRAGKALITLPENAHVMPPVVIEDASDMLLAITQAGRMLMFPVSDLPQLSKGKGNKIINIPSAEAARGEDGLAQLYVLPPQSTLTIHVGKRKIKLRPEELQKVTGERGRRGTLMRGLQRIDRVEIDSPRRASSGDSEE

Molecule: O=C(O)c1cn(C2CC2)c2cc(N3CCNCC3)c(F)cc2c1=O [Ciprofloxacin, reference compound]
- Topo IV decatenation inhibition response ([1]; compound 0.823 μM, 0.823 µM): 25.54
- Topo IV decatenation inhibition response ([1]; compound 2.469 μM, 2.469 µM): 28.07
- Topo IV decatenation inhibition response ([1]; compound 7.407 μM, 7.407 µM): 38.66
- Topo IV decatenation inhibition response ([1]; compound 22.222 μM, 22.222 µM): 96.26
- Topo IV decatenation inhibition response ([1]; compound 66.67 μM, 66.67 µM): 92.59
- Topo IV decatenation inhibition response ([1]; compound 200 μM, 200 µM): 98.71
- inhibition at 0.823 µM ([1]; read-out: Topo IV decatenation inhibition response, S. aureus topo IV, compound 0.823 μM): 21.1%
- inhibition at 2.469 µM ([1]; read-out: Topo IV decatenation inhibition response, S. aureus topo IV, compound 2.469 μM): 31.3%
- inhibition at 7.407 µM ([1]; read-out: Topo IV decatenation inhibition response, S. aureus topo IV, compound 7.407 μM): 27.1%
- inhibition at 22.222 µM ([1]; read-out: Topo IV decatenation inhibition response, S. aureus topo IV, compound 22.222 μM): 99.1%
- inhibition at 66.67 µM ([1]; read-out: Topo IV decatenation inhibition response, S. aureus topo IV, compound 66.67 μM): 97.3%
- inhibition at 200 µM ([1]; read-out: Topo IV decatenation inhibition response, S. aureus topo IV, compound 200 μM): 99%
- MIC90 against diverse global isolates (K. pneumoniae): > 32 µg/mL
- MIC increase of resistant colonies (A. baumannii ATCC 19606): 4- to 32 fold
- resistance frequency (E. coli ATCC 25922): 5 × 10^−9
- Topo IV decatenation inhibition response (E. coli topoisomerase IV; compound 2.34375 μM, 2.34375 µM): 0
- Topo IV decatenation inhibition response (E. coli topoisomerase IV; compound 4.6875 μM, 4.6875 µM): 17.91 and 12.76
- inhibition at 4.6875 µM (E. coli topoisomerase IV; compound 4.6875 μM, read-out: Topo IV decatenation inhibition response): 12.2%
- Topo IV decatenation inhibition response (E. coli topoisomerase IV; compound 9.375 μM, 9.375 µM): 51.63 and 50.29
- inhibition at 9.375 µM (E. coli topoisomerase IV; compound 9.375 μM, read-out: Topo IV decatenation inhibition response): 43.7%
- Topo IV decatenation inhibition response (E. coli topoisomerase IV; compound 18.75 μM, 18.75 µM): 65.07 and 61.86
- inhibition at 18.75 µM (E. coli topoisomerase IV; compound 18.75 μM, read-out: Topo IV decatenation inhibition response): 76.9%
- Topo IV decatenation inhibition response (E. coli topoisomerase IV; compound 37.5 μM, 37.5 µM): 82.71 and 68.2 and 60.49
- Topo IV decatenation inhibition response (E. coli topoisomerase IV; compound 75 μM, 75 µM): 75.94 and 67.64
- inhibition at 75 µM (E. coli topoisomerase IV; compound 75 μM, read-out: Topo IV decatenation inhibition response): 84.2%
- Topo IV decatenation inhibition response (E. coli topoisomerase IV; compound 150 μM, 150 µM): 82.92 and 70.66 and 58.85
- IC50 [2]: 31.2 µM
- Topo IV decatenation inhibition response ([2]; compound 0.293 μM, source data Fig 2B, 0.293 µM): 3.42
- Topo IV decatenation inhibition response ([2]; compound 9.375 μM, source data Fig 2B, 9.375 µM): 6.96
- Topo IV decatenation inhibition response ([2]; compound 37.5 μM, source data Fig 2B, 37.5 µM): 41.68 and 65.61
- Topo IV decatenation inhibition response ([2]; compound 75 μM, source data Fig 2B, 75 µM): 53.28 and 77.23
- Topo IV decatenation inhibition response ([2]; compound 150 μM, source data Fig 2B, 150 µM): 73.28
- inhibition at 0.293 µM ([2]; read-out: Topo IV decatenation inhibition response, P. aeruginosa topo IV, compound 0.293 μM, source data Fig 2B): 3.54%
- inhibition at 9.375 µM ([2]; read-out: Topo IV decatenation inhibition response, P. aeruginosa topo IV, compound 9.375 μM, source data Fig 2B): 4.24%
- inhibition at 150 µM ([2]; read-out: Topo IV decatenation inhibition response, P. aeruginosa topo IV, compound 150 μM, source data Fig 2B): 58.3%
- MIC90 against diverse global isolates (P. aeruginosa): 16 µg/mL (≈ 48.3 µM)
- MIC90 against diverse global isolates (A. baumannii): > 32 µg/mL

Molecule: K. pneumoniae fusion-truncated topoisomerase IV (ParE30-(Glu-Ser)-ParC55) (enzyme)
- stoichiometry N [3]: 2

B1: 26-bp palindromic DNA homoduplex (dsDNA)
DNA 1: TTACGTTGTATGATCATACAACGTAA
DNA 2: TTACGTTGTATGATCATACAACGTAA
- binding result [4]: binds
